# According to the kinase profiling compilation of Christmann-Franck et al. (2016):
# How the values were obtained:
# Experiment in all cases: radiometric filter-binding kinase assay, Kinase HotSpot
# Conditions in all cases: compound 0.5 µM; ATP 10 µM
# [1] = molecular target: IKBKB (human) (UniProt O14920)
# [2] = molecular target: SLK (human) (UniProt Q9H2G2)
# [3] = molecular target: TBK1 (human) (UniProt Q9UHD2)
# [4] = molecular target: VRK1 (human) (UniProt Q99986)
# [5] = molecular target: MAP3K5 (human) (UniProt Q99683)
# [6] = molecular target: PNCK (human) (UniProt Q6P2M8)
# [7] = molecular target: CAMK1G (human) (UniProt Q96NX5)
# [8] = molecular target: PAK3 (human) (UniProt O75914)
# [9] = molecular target: JAK1 JH1 catalytic (human) (UniProt P23458)
# [10] = molecular target: FLT3 (human) (UniProt P36888)
# [11] = molecular target: IGF1R (human) (UniProt P08069)
# [12] = molecular target: MAP3K7 TAB1 (human) (UniProt O43318+Q15750)
# [13] = molecular target: EPHB4 (human) (UniProt P54760)
# [14] = molecular target: NTRK2 (human) (UniProt Q16620)
# [15] = molecular target: CLK3 (human) (UniProt P49761)
# [16] = molecular target: MAPK10 (human) (UniProt P53779)
# [17] = molecular target: SRMS (human) (UniProt Q9H3Y6)
# [18] = molecular target: CHEK2 (human) (UniProt O96017)
# [19] = molecular target: PRKCZ (human) (UniProt Q05513)
# [20] = molecular target: TGFBR2 (human) (UniProt P37173)
# [21] = molecular target: AXL (human) (UniProt P30530)
# AXL (human), sequence (P30530 whole entry, looked up): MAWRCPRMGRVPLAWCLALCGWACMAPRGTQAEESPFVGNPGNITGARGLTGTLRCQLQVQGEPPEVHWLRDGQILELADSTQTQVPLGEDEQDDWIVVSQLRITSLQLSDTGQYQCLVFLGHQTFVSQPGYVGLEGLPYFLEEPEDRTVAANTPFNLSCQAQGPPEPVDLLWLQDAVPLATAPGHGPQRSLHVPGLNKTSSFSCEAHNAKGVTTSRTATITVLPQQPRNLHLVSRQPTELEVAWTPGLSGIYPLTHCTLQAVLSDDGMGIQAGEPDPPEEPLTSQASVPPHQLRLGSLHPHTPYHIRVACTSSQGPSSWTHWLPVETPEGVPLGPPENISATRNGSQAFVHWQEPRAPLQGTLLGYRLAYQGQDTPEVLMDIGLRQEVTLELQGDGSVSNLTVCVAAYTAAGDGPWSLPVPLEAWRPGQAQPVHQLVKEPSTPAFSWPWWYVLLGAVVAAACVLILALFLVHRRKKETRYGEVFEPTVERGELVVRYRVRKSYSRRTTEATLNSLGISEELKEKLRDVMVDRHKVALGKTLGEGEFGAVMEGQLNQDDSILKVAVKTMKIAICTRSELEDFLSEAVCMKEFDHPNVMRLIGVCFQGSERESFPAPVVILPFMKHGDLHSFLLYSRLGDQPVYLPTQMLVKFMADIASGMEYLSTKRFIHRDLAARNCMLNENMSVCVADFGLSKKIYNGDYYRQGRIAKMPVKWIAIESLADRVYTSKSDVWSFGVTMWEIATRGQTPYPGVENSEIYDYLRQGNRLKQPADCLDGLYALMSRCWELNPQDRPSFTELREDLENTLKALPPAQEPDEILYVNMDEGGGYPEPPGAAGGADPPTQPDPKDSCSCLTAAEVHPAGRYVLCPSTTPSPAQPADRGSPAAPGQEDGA
# [22] = molecular target: MELK (human) (UniProt Q14680)
# [23] = molecular target: CHEK1 (human) (UniProt O14757)
# CHEK1 (human), sequence (O14757 whole entry, looked up): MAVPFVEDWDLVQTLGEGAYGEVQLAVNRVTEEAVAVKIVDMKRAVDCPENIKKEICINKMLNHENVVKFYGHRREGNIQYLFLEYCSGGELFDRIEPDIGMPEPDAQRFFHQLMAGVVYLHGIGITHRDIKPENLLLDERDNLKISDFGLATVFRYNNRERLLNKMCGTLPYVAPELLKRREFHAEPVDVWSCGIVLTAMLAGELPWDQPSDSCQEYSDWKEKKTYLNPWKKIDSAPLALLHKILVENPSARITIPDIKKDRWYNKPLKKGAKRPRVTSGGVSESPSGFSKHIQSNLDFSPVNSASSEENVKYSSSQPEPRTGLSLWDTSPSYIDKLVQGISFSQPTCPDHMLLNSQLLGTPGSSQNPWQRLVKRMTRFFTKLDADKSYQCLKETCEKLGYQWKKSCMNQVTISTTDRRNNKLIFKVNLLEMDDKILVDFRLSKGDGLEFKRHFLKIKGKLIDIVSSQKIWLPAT
# [24] = molecular target: CSNK1G2 (human) (UniProt P78368)
# [25] = molecular target: SGK2 (human) (UniProt Q9HBY8)
# [26] = molecular target: TAOK1 (human) (UniProt Q7L7X3)
# [27] = molecular target: SIK2 (human) (UniProt Q9H0K1)
# [28] = molecular target: GSK3A (human) (UniProt P49840)
# [29] = molecular target: NEK11 (human) (UniProt Q8NG66)
# [30] = molecular target: MAP3K2 (human) (UniProt Q9Y2U5)
# [31] = molecular target: CAMK2G (human) (UniProt Q13555)
# CAMK2G (human), sequence (Q13555 whole entry, looked up): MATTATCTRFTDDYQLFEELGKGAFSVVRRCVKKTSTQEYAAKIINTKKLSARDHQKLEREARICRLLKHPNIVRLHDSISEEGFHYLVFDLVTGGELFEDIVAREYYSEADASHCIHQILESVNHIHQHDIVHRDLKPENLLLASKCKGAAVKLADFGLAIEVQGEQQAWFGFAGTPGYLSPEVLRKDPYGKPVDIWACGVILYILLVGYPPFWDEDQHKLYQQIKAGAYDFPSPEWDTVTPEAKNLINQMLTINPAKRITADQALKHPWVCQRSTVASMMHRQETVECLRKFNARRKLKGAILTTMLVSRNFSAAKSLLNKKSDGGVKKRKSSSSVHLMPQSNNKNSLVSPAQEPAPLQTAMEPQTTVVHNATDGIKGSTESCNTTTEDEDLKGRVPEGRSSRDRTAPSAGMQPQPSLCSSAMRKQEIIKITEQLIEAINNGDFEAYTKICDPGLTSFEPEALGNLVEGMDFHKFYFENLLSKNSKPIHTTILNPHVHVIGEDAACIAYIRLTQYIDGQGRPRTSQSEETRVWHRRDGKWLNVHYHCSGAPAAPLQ
# [32] = molecular target: RIPK2 (human) (UniProt O43353)
# [33] = molecular target: SYK (human) (UniProt P43405)
# [34] = molecular target: DAPK2 (human) (UniProt Q9UIK4)
# [35] = molecular target: TSSK1B (human) (UniProt Q9BXA7)
# TSSK1B (human), sequence (Q9BXA7 whole entry, looked up): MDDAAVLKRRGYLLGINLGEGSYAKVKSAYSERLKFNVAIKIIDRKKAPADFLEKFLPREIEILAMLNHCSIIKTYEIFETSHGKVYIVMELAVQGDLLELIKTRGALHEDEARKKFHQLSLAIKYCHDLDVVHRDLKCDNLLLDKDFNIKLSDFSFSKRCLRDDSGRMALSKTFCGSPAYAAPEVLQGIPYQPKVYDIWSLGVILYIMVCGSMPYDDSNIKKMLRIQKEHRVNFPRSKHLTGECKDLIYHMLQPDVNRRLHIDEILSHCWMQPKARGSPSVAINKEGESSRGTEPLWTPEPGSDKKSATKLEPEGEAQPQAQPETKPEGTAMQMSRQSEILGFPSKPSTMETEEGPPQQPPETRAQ
# [36] = molecular target: STK16 (human) (UniProt O75716)
# STK16 (human), sequence (O75716 whole entry, looked up): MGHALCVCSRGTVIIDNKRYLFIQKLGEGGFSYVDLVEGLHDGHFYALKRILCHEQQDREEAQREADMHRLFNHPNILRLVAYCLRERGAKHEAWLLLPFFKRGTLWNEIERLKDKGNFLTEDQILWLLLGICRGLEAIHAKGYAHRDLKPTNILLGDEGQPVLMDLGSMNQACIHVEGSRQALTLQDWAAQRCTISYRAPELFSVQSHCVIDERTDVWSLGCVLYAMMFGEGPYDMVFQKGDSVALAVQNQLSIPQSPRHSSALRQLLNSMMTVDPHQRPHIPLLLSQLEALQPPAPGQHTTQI
# [37] = molecular target: MAPKAPK3 (human) (UniProt Q16644)
# [38] = molecular target: HIPK3 (human) (UniProt Q9H422)
# [39] = molecular target: NUAK1 (human) (UniProt O60285)
# [40] = molecular target: MAP4K2 (human) (UniProt Q12851)
# [41] = molecular target: AURKB (human) (UniProt Q96GD4)
# [42] = molecular target: FRK (human) (UniProt P42685)
# SLK (human), sequence (Q9H2G2 whole entry, looked up): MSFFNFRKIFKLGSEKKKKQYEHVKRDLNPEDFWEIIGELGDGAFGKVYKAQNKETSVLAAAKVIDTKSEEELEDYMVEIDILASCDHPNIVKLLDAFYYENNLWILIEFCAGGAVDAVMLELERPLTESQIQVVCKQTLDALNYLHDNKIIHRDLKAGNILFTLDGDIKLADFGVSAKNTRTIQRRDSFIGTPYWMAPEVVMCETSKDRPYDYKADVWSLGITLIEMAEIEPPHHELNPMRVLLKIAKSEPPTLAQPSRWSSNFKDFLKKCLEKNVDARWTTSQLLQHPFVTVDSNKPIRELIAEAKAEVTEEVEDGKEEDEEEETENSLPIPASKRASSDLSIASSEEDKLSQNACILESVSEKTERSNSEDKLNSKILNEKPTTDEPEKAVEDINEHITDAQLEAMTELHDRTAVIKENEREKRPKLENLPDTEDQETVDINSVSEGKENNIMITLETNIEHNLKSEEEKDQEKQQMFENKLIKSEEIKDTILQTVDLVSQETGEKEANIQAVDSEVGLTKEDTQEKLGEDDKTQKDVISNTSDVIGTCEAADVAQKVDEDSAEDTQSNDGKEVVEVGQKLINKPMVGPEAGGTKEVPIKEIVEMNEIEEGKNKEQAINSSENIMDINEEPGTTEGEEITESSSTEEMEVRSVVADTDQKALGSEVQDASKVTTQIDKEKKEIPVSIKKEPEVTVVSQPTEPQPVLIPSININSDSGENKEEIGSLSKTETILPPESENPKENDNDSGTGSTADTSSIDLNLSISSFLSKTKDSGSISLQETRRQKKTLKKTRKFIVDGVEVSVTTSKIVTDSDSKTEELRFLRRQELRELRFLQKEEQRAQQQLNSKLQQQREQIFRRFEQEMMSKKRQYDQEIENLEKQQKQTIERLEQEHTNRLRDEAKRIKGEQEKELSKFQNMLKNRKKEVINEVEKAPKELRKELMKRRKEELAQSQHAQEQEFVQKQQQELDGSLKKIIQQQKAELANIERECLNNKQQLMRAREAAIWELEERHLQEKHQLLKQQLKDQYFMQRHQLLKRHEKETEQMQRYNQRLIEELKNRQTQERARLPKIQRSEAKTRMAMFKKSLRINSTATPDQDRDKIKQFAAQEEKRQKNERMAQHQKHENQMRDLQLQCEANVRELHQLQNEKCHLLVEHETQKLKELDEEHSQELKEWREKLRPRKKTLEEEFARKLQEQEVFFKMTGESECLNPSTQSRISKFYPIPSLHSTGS
# IKBKB (human), sequence (O14920 whole entry, looked up): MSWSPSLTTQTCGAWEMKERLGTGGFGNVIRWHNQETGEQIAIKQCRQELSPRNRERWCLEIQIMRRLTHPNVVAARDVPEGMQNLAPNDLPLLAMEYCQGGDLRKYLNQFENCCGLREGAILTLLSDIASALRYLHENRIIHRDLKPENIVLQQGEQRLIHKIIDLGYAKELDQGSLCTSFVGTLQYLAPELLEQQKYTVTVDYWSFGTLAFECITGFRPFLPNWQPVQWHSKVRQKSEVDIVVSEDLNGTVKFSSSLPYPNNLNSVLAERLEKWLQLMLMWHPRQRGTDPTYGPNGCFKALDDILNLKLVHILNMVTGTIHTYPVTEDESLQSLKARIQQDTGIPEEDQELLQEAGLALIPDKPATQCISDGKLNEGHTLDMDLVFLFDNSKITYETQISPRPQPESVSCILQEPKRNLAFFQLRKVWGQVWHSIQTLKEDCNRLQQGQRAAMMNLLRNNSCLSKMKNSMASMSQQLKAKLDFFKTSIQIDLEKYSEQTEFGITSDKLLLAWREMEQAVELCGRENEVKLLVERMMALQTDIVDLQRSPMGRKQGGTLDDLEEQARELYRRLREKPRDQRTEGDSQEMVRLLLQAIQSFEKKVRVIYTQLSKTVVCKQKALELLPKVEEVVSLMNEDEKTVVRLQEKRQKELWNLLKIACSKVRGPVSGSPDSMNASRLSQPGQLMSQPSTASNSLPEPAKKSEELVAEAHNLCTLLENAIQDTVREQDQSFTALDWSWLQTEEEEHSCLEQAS
# VRK1 (human), sequence (Q99986 whole entry, looked up): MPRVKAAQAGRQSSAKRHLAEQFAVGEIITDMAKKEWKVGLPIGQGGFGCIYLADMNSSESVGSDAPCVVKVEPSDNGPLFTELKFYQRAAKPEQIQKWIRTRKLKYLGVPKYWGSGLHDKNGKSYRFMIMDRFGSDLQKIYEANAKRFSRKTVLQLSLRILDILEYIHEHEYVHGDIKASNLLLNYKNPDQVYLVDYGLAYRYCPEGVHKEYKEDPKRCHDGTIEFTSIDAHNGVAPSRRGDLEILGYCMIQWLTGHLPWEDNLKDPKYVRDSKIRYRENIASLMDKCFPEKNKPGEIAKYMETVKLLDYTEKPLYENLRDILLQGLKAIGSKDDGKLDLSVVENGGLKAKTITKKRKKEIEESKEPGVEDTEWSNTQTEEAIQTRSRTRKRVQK
smiles,measurement,setting,value
Cc1nc2cc3nc(-c4cccs4)cnc3cc2n1C,residual activity,[1],103%
same,residual activity,[2],94.5%
same,residual activity,[3],93%
same,residual activity,[4],95.6%
same,residual activity,[5],98.9%
same,residual activity,[6],102%
same,residual activity,[7],106%
same,residual activity,[8],98.8%
same,residual activity,[9],105%
same,residual activity,[10],27.5%
same,residual activity,[11],96.4%
same,residual activity,[12],92.5%
same,residual activity,[13],92.1%
same,residual activity,[14],64.7%
same,residual activity,[15],114%
same,residual activity,[16],96.3%
same,residual activity,[17],95.4%
same,residual activity,[18],94.6%
same,residual activity,[19],95.6%
same,residual activity,[20],89.2%
same,residual activity,[21],109%
same,residual activity,[22],95.6%
same,residual activity,[23],99.8%
same,residual activity,[24],103%
same,residual activity,[25],115%
same,residual activity,[26],110%
same,residual activity,[27],112%
same,residual activity,[28],94.1%
same,residual activity,[29],93.1%
same,residual activity,[30],90.2%
same,residual activity,[31],101%
same,residual activity,[32],89.1%
same,residual activity,[33],94.3%
same,residual activity,[34],94.1%
same,residual activity,[35],91.3%
same,residual activity,[36],95.2%
same,residual activity,[37],102%
same,residual activity,[38],101%
same,residual activity,[39],95.3%
same,residual activity,[40],110%
same,residual activity,[41],84.9%
same,residual activity,[42],98.9%
